Measured values as given in patent publication US20100233145A1, “COMPOSITION USED AS A NUTRITIONAL SUPPLEMENT AND MEDICATION FOR THE TREATMENT OF DEGENERATIVE VISUAL DISORDERS AND INFLAMMATION” (APO PHARMACEUTICALS INTERNATIONAL B.V., priority 2006, published 2010).

Tested on: retina explants from rd1 mice
Assay: in vitro organ culture of retina explants under serum-free conditions
Format: cell-based, mouse
Details: for Number of rows of photoreceptors average ± SD, (n): rd/rd retina explants, glutathione 3 μg/ml, ALA 2 μg/ml, zeaxanthin 0.3 μg/ml, lutein 0.3 μg/ml, control 1.5 ± 0.3
Method: The in vitro-experiments were performed on an organ culture of retina explants under serum-free conditions, as described in […], Ahuja P, Holmqvist B, Azadi […], van Veen T (2001) “Mouse retina explants after long-term culture in serum-free medium.”, J Chem Neuroanat 22: 263-273. The described technique was carried out on retina explants from rd1 mice as used in the in-vivo experiments. Retinas of rd1 mice were transferred at PN3 to an in vitro culture on flat nitrocellulose membranes and were kept in […] medium for 8 and 21 days, corresponding with the age PN11 and […] of the animals. All experiments were performed paired, wherein untreated retinas were compared to retinas which were exposed to a treatment. […] In order to achieve these concentrations the correct measured quantities of stock solution as described for the in vivo experiments were added to the medium. […] The rows of photoreceptors in the outer nuclear layer (ONL) were counted in 5 slices of each composition, wherein of each slice six different sections were analysed corresponding with the sections in the in vivo experiments. The differences between treated and untreated retinas were compared statistically with Student's paired t-test, or Student's unpaired t-test, wherein differences in which p<0.05 were deemed significant.

For `CC1=C[C@H](O)CC(C)(C)[C@H]1/C=C/C(C)=C/C=C/C(C)=C/C=C/C=C(C)/C=C/C=C(C)/C=C/C1=C(C)C[C@@H](O)CC1(C)C` [Lutein, (3R, 3′R, 6′R)-(3,c-carotene-3,3′-diol], the “Number of rows of photoreceptors average ± SD, (n)” value was 2.0 ± 0.8 (n-6) rows.
With `O=C(O)CCCCC1CCSS1` (stereo not drawn) [alpha lipoic acid, thioctic acid] the “Number of rows of photoreceptors average ± SD, (n)” value was 1.8 ± 0.5 (n-6) rows.
In the case of `N[C@@H](CCC(=O)N[C@@H](CS)C(=O)NCC(=O)O)C(=O)O` [glutathione, L-glutathione], the “number of rows of photoreceptor cells, treated versus untreated explant” value (rd1 explant, FIGS. 6a and 6b) is reported as “almost the same” and the “Number of rows of photoreceptors average ± SD, (n)” value is reported as 2.0 ± 0.9 (n-6) rows.
With `CC1=C(/C=C/C(C)=C/C=C/C(C)=C/C=C/C=C(C)/C=C/C=C(C)/C=C/C2=C(C)C[C@@H](O)CC2(C)C)C(C)(C)C[C@H](O)C1` [zeaxanthin, (3R, 3′R)-β,β-carotene-3,3′-diol] the “Number of rows of photoreceptors average ± SD, (n)” value was 1.9 ± 0.7 (n-6) rows.
